Assay results: patent publication US11117900B2 (Vertex Pharmaceuticals Incorporated, priority 2012, dated 2021)

These compounds were tested on HCT116 colorectal cancer cells (assay: Cisplatin sensitization assay (96 h MTS cell viability)). Conditions: Cisplatin sensitization value.
Format: cell-based
Protocol: Compounds can be screened for their ability to sensitize HCT116 colorectal cancer cells to Cisplatin using a 96 h cell viability (MTS) assay. […] Compounds and Cisplatin are then both added simultaneously to the cell media in 2-fold serial dilutions from a top final concentration of 10 μM as a full matrix of concentrations in a final cell volume of 200 μl, and the cells are then incubated at 37° C. in 5% CO2. After 96 h, 40 μl of MTS reagent (Promega G358a) is added to each well and the cells are incubated for 1 h at 37° C. in 5% CO2.
Compounds with a Cisplatin sensitization value of <0.02 μM are marked with “+++.” Compounds with a Cisplatin sensitization value >0.02 μM but <0.2 μM are marked with “++.” Compounds with a Cisplatin sensitization value >0.2 μM but <5 μM are marked with “+.”
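Further: compound concentration needed to lower the IC50 of Cisplatin alone by a set fold.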

Row | Compound | Cisplatin Sensitization Assay
1 | CN1CCC(C(=O)N2CC=C(c3c(F)cncc3NC(=O)c3c(N)nn4cc(F)cnc34)CC2)CC1 [I-C-38, 2-amino-6-fluoro-N-(5-fluoro-1′-(1-methylpiperidine-4-carbonyl)-1′,2′,3′,6′-tetrahydro-[4,4′-bipyridin]-3-yl)pyrazolo[1,5-a]pyrimidine-3-carboxamide] | ++ (Compounds with a Cisplatin sensitization value >0.02 μM but <0.2 μM are marked with “++.”)
2 | Cc1nc(C(=O)N2CCN(C)CC2)ccc1-c1ccncc1NC(=O)c1c(N)nn2cc(F)cnc12 [I-C-39, 2-amino-6-fluoro-N-(2-methyl-6-(4-methylpiperazine-1-carbonyl)-[3,4′-bipyridin]-3′-yl)pyrazolo[1,5-a]pyrimidine-3-carboxamide] | +++ (Compounds with a Cisplatin sensitization value of <0.02 μM are marked with “+++.”)
3 | Cc1nc(N2CCN(C)CC2)ccc1-c1ccncc1NC(=O)c1c(N)nn2cc(F)cnc12 [I-C-40, 2-amino-6-fluoro-N-(2-methyl-6-(4-methylpiperazin-1-yl)-[3,4′-bipyridin]-3′-yl)pyrazolo[1,5-a]pyrimidine-3-carboxamide] | +++ (Compounds with a Cisplatin sensitization value of <0.02 μM are marked with “+++.”)
4 | Cc1nc(O[C@@H]2CCN(C)C2)ccc1-c1ccncc1NC(=O)c1c(N)nn2cc(F)cnc12 [I-C-41, (R)-2-amino-6-fluoro-N-(2-methyl-6-((1-methylpyrrolidin-3-yl)oxy)-[3,4′-bipyridin]-3′-yl)pyrazolo[1,5-a]pyrimidine-3-carboxamide] | +++ (Compounds with a Cisplatin sensitization value of <0.02 μM are marked with “+++.”)
5 | Nc1nn2cc(F)cnc2c1C(=O)Nc1cnccc1C1CC1 [I-C-42, 2-amino-N-(4-cyclopropylpyridin-3-yl)-6-fluoropyrazolo[1,5-a]pyrimidine-3-carboxamide] | ++ (Compounds with a Cisplatin sensitization value >0.02 μM but <0.2 μM are marked with “++.”)
6 | CN1CCN(C(=O)c2ccc(-c3c(F)cncc3NC(=O)c3c(N)nn4cc(F)cnc34)cc2)CC1 [I-C-43, 2-amino-6-fluoro-N-(5-fluoro-4-(4-(4-methylpiperazine-1-carbonyl)phenyl)pyridin-3-yl)pyrazolo[1,5-a]pyrimidine-3-carboxamide] | +++ (Compounds with a Cisplatin sensitization value of <0.02 μM are marked with “+++.”)
7 | Nc1nn2cc(F)cnc2c1C(=O)Nc1cnccc1-c1ccc(C(=O)N2CCNCC2)cc1 [I-C-44, 2-amino-6-fluoro-N-(4-(4-(piperazine-1-carbonyl)phenyl)pyridin-3-yl)pyrazolo[1,5-a]pyrimidine-3-carboxamide] | +++ (Compounds with a Cisplatin sensitization value of <0.02 μM are marked with “+++.”)
8 | Cc1cc(C(=O)N2CCN(C)CC2)ccc1-c1ccncc1NC(=O)c1c(N)nn2cc(F)cnc12 [I-C-45, 2-amino-6-fluoro-N-(4-(2-methyl-4-(4-methylpiperazine-1-carbonyl)phenyl)pyridin-3-yl)pyrazolo[1,5-a]pyrimidine-3-carboxamide] | +++ (Compounds with a Cisplatin sensitization value of <0.02 μM are marked with “+++.”)
9 | CN1CCN(C(=O)c2cnc(-c3ccncc3NC(=O)c3c(N)nn4cc(F)cnc34)c(Cl)c2)CC1 [I-C-46, 2-amino-N-(3-chloro-5-(4-methylpiperazine-1-carbonyl)-[2,4′-bipyridin]-3′-yl)-6-fluoropyrazolo[1,5-a]pyrimidine-3-carboxamide] | + (Compounds with a Cisplatin sensitization value >0.2 μM but <5 μM are marked with “+.”)
10 | Nc1nn2cc(F)cnc2c1C(=O)Nc1cnccc1C1CCN(S(=O)(=O)C2CC2)CC1 [I-C-47, 2-amino-N-(4-(1-(cyclopropylsulfonyl)piperidin-4-yl)pyridin-3-yl)-6-fluoropyrazolo[1,5-a]pyrimidine-3-carboxamide] | +++ (Compounds with a Cisplatin sensitization value of <0.02 μM are marked with “+++.”)
